From publication PMC1977926, “Human pancreatic cancer cell lines do not express receptors for somatostatin” (British Journal of Cancer, 1992)
One block for each compound: values may come before it. Bridge positions count the residues as written; N and C are the ends. Square brackets hold non-standard residues; d marks the D form. Peptide text beside a SMILES is read from it. Tyr(3-I) = N[C@@H](Cc1ccc(O)c(I)c1)C(=O)O

Tests used:
[1] = test system: Panc-1 human ductal pancreatic carcinoma cell line; experiment: Proliferation of Panc-1 (3H-thymidine incorporation); assay type: cell-based; conditions: 48 h, three experiments, five determinations; for Stimulation of growth of Panc-1: serum free medium, 3H-thymidine incorporation, P<0.01 compared to untreated cells
Text: (§1) Br. J. Cancer (1992), 66, 483 487 ? […] Somatostatin (SS) is a tetradecapeptide widely distributed throughout the body, being found in high concentrations in the brain, stomach, intestine and pancreas (Reichlin, 1983). Somatostatin exerts inhibitory actions on the cellular func- tions within a variety of tissues including secretion and growth (Konturek et al., 1988; Meyers & Coy, 1980; Schally, 1988). […] It has therefore been proposed that somatostatin may be capable of inhibiting pancreatic tumour growth indirectly via the suppression of secretion of pancreatic trophic hor- mones and/or by direct effects on the tumour itself (Schally et al., 1988; Liebow et al., 1989). […] For somatostatin to impair directly the growth of pancreatic cancer the cells should therefore express receptors for the peptide. The aim of these study was to determine the somatostatin receptor status of two human (MiaPaCa-2 & Panc-1) and a rat (AR42J) pancreatic cancer cell lines. We have also studied the effects of somatostatin-14 and RC-160 on the proliferation of these three cell lines. Materials and methods Cell growth MiaPaCa-2 and Panc-1 are both human ductal pancreatic carcinoma cell lines and were obtained from the European Cell Culture Collection. AR42J is a rat pancreatic acinar tumour cell line and was kindly provided by Dr S. Watson (Cancer Research Campaign Laboratories, Nottingham Uni- versity). MiaPaCa-2 and Panc-l were routinely grown in Dulbecco's Modified Eagle's Medium (DMEM) containing 10% foetal calf serum (ICN Flow, Irvine). AR42J cells were grown in RPMI 1640 containing 10% FCS (ICN Flow, Irvine). The cells were trypsinised and plated out in 96 well plates at 5 x I04 cells ml-' in serum-free (SF) medium for 24 h. After this period of serum starvation the medium was supple- mented with EGF (Sigma, Dorset) or IGF-I (Peninsula, St Helens) with or without SS-14 (Sigma, Dorset) or RC-160 (Peninsula, St Helens). EGF, IGF-1, SS-14 and RC-160 were added at concentrations described in the Results section. The cells were then incubated for 48 h at 37?C. DNA synthesis was assessed for the final 6 h by adding 0.5 liCi 3H-thymi- dine/well. The cells were then collected onto filter mats using a semi-automatic cell harvester (Inotech, Switzerland). Scin- tillation fluid was added to individual filter discs and the cell associated radioactivity counted in a beta counter (Packard 1900CA Tricarb). Binding studies Binding of ['25I-tyr"]Somatostatin (Amersham International) was performed on membranes prepared from the three cell lines. Cells were washed twice with phosphate buffered saline (pH 7.4), then removed from 150 cm2 flasks using a cell scraper. […] The protein content of the suspension was determined using a bicinchoninic acid kit (Pierce, Rockford, USA).

[2] = test system: MiaPaCa-2 human ductal pancreatic carcinoma cell line; experiment: Proliferation of MiaPaCa-2 (3H-thymidine incorporation); assay type: cell-based; conditions: three experiments, five determinations; for Stimulation of growth of MiaPaCa-2: serum free medium, 3H-thymidine incorporation, P<0.01 compared to untreated cells
Text: as §1

[3] = target: T1, somatostatin receptors (AR42J membranes) (Rattus norvegicus, UniProt P30680); experiment: Displacement binding, 125I-SS, AR42J membranes; conditions: 125I-SS 0.5 nM, 1 h at 30 C
T1 construct: endogenous in cells; host or cells: AR42J rat pancreatic acinar tumour cell line (membrane preparation)
T1 sequence (P30680 whole entry): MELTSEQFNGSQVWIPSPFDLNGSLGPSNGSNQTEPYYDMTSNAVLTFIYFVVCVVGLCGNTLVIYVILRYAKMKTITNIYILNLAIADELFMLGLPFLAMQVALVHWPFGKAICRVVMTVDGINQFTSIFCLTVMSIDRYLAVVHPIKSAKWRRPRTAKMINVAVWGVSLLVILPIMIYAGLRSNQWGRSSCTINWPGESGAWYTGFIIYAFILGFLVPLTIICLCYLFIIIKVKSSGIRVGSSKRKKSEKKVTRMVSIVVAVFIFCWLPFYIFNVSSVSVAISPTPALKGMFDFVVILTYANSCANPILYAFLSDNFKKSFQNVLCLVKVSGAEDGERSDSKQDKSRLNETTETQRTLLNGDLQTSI
Text: (§2) Br. J. Cancer (1992), 66, 483 487 ? […] Somatostatin (SS) is a tetradecapeptide widely distributed throughout the body, being found in high concentrations in the brain, stomach, intestine and pancreas (Reichlin, 1983). Somatostatin exerts inhibitory actions on the cellular func- tions within a variety of tissues including secretion and growth (Konturek et al., 1988; Meyers & Coy, 1980; Schally, 1988). […] It has therefore been proposed that somatostatin may be capable of inhibiting pancreatic tumour growth indirectly via the suppression of secretion of pancreatic trophic hor- mones and/or by direct effects on the tumour itself (Schally et al., 1988; Liebow et al., 1989). […] For somatostatin to impair directly the growth of pancreatic cancer the cells should therefore express receptors for the peptide. The aim of these study was to determine the somatostatin receptor status of two human (MiaPaCa-2 & Panc-1) and a rat (AR42J) pancreatic cancer cell lines. […] DNA synthesis was assessed for the final 6 h by adding 0.5 liCi 3H-thymi- dine/well. […] Scin- tillation fluid was added to individual filter discs and the cell associated radioactivity counted in a beta counter (Packard 1900CA Tricarb). […] The protein content of the suspension was determined using a bicinchoninic acid kit (Pierce, Rockford, USA).

[4] = test system: somatostatin receptors on MiaPaCa-2; conditions: no Kd quoted, no total or non-specific binding curves; ref Hierowski et al. (1985); cited from earlier work
Text: (§3) Br. J. Cancer (1992), 66, 483 487 ? […] Summary The in vivo administration of somatostatin (SS) or its analogues is capable of suppressing the growth of pancreatic cancer in experimental animals. We examined the effects of SS-14 and its analogue RC-160 on the in vitro growth of ...

[5] = test system: endocrine secretion of cholecystokinin, gastrin and secretin; conditions: ref Schally et al., 1978; cited from earlier work
Text: as §3

[6] = test system: rat experimental pancreatic cancer; conditions: ref Redding et al. (1984); cited from earlier work
Text: as §3

[7] = test system: hamster experimental pancreatic cancer; conditions: ref Redding et al. (1984); cited from earlier work
Text: as §3

[8] = test system: tyrosine phosphatase activity; conditions: in vitro, MiaPaCa-2; ref Liebow et al., 1989; cited from earlier work
Text: as §3

[9] = test system: pancreatic exocrine secretion of protein and bicarbonate; conditions: ref Boden et al., 1975; cited from earlier work
Text: as §3

[10] = test system: somatostatin receptors in human pancreatic adenocarcinomas; conditions: 12 fresh adenocarcinomas; ref Reubi et al. (1988); cited from earlier work
Text: as §3

[11] = test system: MiaPaCa-2; conditions: cited from earlier work
Text: as §3

[12] = test system: Panc-1; conditions: unstimulated cells, serum-free medium, one concentration; ref Liehr et al., 1990; cited from earlier work
Text: as §3

[13] = test system: somatostatin binding sites in human pancreatic cancer xenograft; conditions: ref Singh and colleagues (1991); cited from earlier work
Text: as §3

[14] = test system: EGF receptor; conditions: ref Hierowski et al., 1985; cited from earlier work
Text: as §3

[15] = test system: somatostatin receptors (Panc-1 membranes); experiment: Displacement binding, 125I-SS, Panc-1 membranes; parameters: species or system human; conditions: 125I-SS 0.5 nM, unlabelled RC-160 10-6 to 10-11 M, 1 h at 30 C
Text: as §2

[16] = test system: somatostatin receptors (MiaPaCa-2 membranes); experiment: Displacement binding, 125I-SS, MiaPaCa-2 membranes; parameters: species or system human; conditions: 125I-SS 0.5 nM, unlabelled RC-160 10-6 to 10-11 M, 1 h at 30 C
Text: as §2

[17] = target: T1, somatostatin receptors (AR42J membranes); experiment: Saturation binding, 125I-SS, AR42J membranes; conditions: 125I-SS 0.05-1 nM, 2 h at 30 C, single class of high affinity binding sites (abstract)
Text: as §2

Compound: insulin-like growth factor 1 [IGF-1]
- Stimulation of growth of Panc-1 [1]: increased the proliferation of the two cell lines (P<0.01 compared to untreated cells)
- Stimulation of growth of MiaPaCa-2 ([2]; 48 h): increased the proliferation of the two cell lines (P<0.01 compared to untreated cells)

- Displacement of radiolabelled somatostatin from AR42J membranes ([3]; unlabelled RC-160 10-6 to 10-11 M, 50 mM Tris, 0.2% BSA, filtration): 95%
- IC50 ([3]; competition, AR42J membranes, non-linear regression): 0.631 nM
Compound: CC(C)[C@@H]1NC(=O)[C@H](CCCCN)NC(=O)[C@@H](Cc2c[nH]c3ccccc23)NC(=O)[C@H](Cc2ccc(O)cc2)NC(=O)[C@@H](NC(=O)[C@H](N)Cc2ccccc2)CSSC[C@@H](C(=O)N[C@@H](Cc2c[nH]c3ccccc23)C(N)=O)NC1=O [RC-160] (H-[dF]CY[dW]KVCW-NH2; disulfide 2-7)

Compound: epidermal growth factor [EGF, epidermal growth factor (Sigma, Dorset)]
- Stimulation of growth of Panc-1 [1]: stimulated the growth of both cell lines (P<0.01 compared to untreated cells)
- Stimulation of growth of MiaPaCa-2 ([2]; 48 h): stimulated the growth of both cell lines (P<0.01 compared to untreated cells), having a more pronounced effect on MiaPaCa-2

Compound: SS-14: Somatostatin (SS) is a tetradecapeptide; SS-14 from Sigma, Dorset
- Bmax, MiaPaCa-2 [4]: 3.6 fmole mg-' protein
- Inhibition of endocrine secretion of cholecystokinin, gastrin and secretin [5]: inhibits the pancreatic exocrine secretion of protein and bicarbonate (Boden et al., 1975) and the endocrine secretion of cholecystokinin, gastrin and secretin
- Inhibition of rat experimental pancreatic cancer growth [6]: inhibition of both rat and hamster experimental pancreatic cancer growth
- Inhibition of hamster experimental pancreatic cancer growth [7]: inhibition of both rat and hamster experimental pancreatic cancer growth
- Promotion of tyrosine phosphatase activity [8]: promotion of tyrosine phosphatase activity
- Inhibition of pancreatic exocrine secretion [9]: inhibits the pancreatic exocrine secretion of protein and bicarbonate
- Specific somatostatin receptors in fresh human pancreatic adenocarcinomas [10]: none of which contained specific somatostatin receptors
- Inhibition of EGF-stimulated growth of MiaPaCa-2 ([11]; in vitro, ref Liebow et al. (1986; 1989)): all inhibit the EGF- stimulated growth of MiaPaCa-2
- Growth inhibitory effect, MiaPaCa-2 ([11]; unstimulated cells, serum-free medium, one concentration, ref Liehr et al., 1990): no growth inhibitory effect
- Growth inhibitory effect, Panc-1 [12]: no growth inhibitory effect
- Specific binding sites in human pancreatic cancer xenograft [13]: one of these xenografts expressed specific binding sites
- Dephosphorylation of the EGF receptor [14]: causes the dephosphorylation of the EGF receptor
- Effect on DNA synthesis in EGF stimulated Panc-1 cells ([1]; EGF 10^-8 M, serum free, 3H-thymidine for final 6 h, P>0.05 compared to stimulated cells): neither SS-14 nor RC-160 had any effect on DNA synthesis
- Effect on DNA synthesis in IGF-1 stimulated Panc-1 cells ([1]; IGF-1 10^-8 M, serum free, 3H-thymidine for final 6 h, P>0.05 compared to stimulated cells): neither SS-14 nor RC-160 had any effect on DNA synthesis
- Effect on DNA synthesis in EGF stimulated MiaPaCa-2 cells ([2]; EGF 10^-8 M, serum free DMEM, 48 h at 37 C, 3H-thymidine for final 6 h, P>0.05 compared to stimulated cells): neither SS-14 nor RC-160 had any effect on DNA synthesis
- Effect on DNA synthesis in IGF-1 stimulated MiaPaCa-2 cells ([2]; IGF-1 10^-8 M, serum free, 48 h, 3H-thymidine for final 6 h, P>0.05 compared to stimulated cells): neither SS-14 nor RC-160 had any effect on DNA synthesis

- Displaceable binding, Panc-1 [15]: not displaceable binding was observed
- Displaceable binding, MiaPaCa-2 [16]: not displaceable binding was observed
- Bmax [17]: 2.1 +/- 0.26 pmoles mg-1 protein
Compound: C[C@H](N)C(=O)NCC(=O)N[C@H]1CSSC[C@@H](C(=O)O)NC(=O)[C@H](CO)NC(=O)[C@H]([C@@H](C)O)NC(=O)[C@H](Cc2ccc(O)c(I)c2)NC(=O)[C@H]([C@@H](C)O)NC(=O)[C@H](CCCCN)NC(=O)[C@H](Cc2c[nH]c3ccccc23)NC(=O)[C@H](Cc2ccccc2)NC(=O)[C@H](Cc2ccccc2)NC(=O)[C@H](CC(N)=O)NC(=O)[C@H](CCCCN)NC1=O [125I-Tyr11 somatostatin] (H-AGCKNFFWKT[Tyr(3-I)]TSC-OH; disulfide 3-14 (inferred); N-terminus and C-terminus assumed)
